According to PubChem BioAssay AID248 (DTP/NCI, 2004):
Where “and” joins values, the source holds several entries; their conditions need not be identical. Equal entries are not always repeated. Inconclusive results and toxic doses are left out.

System: L1210 leukemia ip in BDF1 mice, survival T/C
Assay: NCI In Vivo Anticancer Drug Screen. Data for tumor model L1210 Leukemia (intraperitoneal) in B6D2F1 (BDF1) mice
Details: higher = longer survival
Summary of the method: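 Transplanted-tumor mice were given test agent; controls received vehicle only. Survival readings from the two groups were divided (treated over control).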

`CN(N=O)C(N)=O` was tested, and the T/C (endpoint: mean survival time, dose: 0.35 mg/kg/injection, schedule: Q01DX Z (sc), vehicle: steriod suspending solution) was 103 % of control, the T/C (endpoint: mean survival time, dose: 0.55 mg/kg/injection, schedule: Q01DX Z (sc), vehicle: steriod suspending solution) was 97 % of control and the T/C (endpoint: mean survival time, dose: 0.83 mg/kg/injection, schedule: Q01DX Z (sc), vehicle: steriod suspending solution) was 100 % of control. The T/C (endpoint: mean survival time, dose: 0.92 mg/kg/injection, schedule: Q01DX Z (oral), vehicle: steriod suspending solution) was 98 % of control, the T/C (endpoint: mean survival time, dose: 1.25 mg/kg/injection, schedule: Q01DX Z (sc), vehicle: steriod suspending solution) was 103 % of control and the T/C (endpoint: mean survival time, dose: 1.38 mg/kg/injection, schedule: Q01DX Z (oral), vehicle: steriod suspending solution) was 106 % of control. For the same molecule, the T/C (endpoint: mean survival time, dose: 2.08 mg/kg/injection, schedule: Q01DX Z (oral), vehicle: steriod suspending solution) was 107 % of control, the T/C (endpoint: mean survival time, dose: 2.25 mg/kg/injection, schedule: Q01DX Z (ip), vehicle: carboxymethylcellulose (CMC)) was 112 % of control and the T/C (endpoint: mean survival time, dose: 2.5 mg/kg/injection, schedule: Q01DX Z (sc), vehicle: steriod suspending solution) was 156 % of control. The T/C (endpoint: mean survival time, dose: 3.12 mg/kg/injection, schedule: Q01DX Z (oral), vehicle: steriod suspending solution) was 114 % of control, the T/C (endpoint: mean survival time, dose: 3.6 mg/kg/injection, schedule: Q01DX Z (ip), vehicle: carboxymethylcellulose (CMC)) was 109 % of control and the T/C (endpoint: mean survival time, dose: 4.5 mg/kg/injection, schedule: Q01DX Z (ip), vehicle: carboxymethylcellulose (CMC)) was 109 % of control and 120 % of control. The T/C (endpoint: mean survival time, dose: 5.0 mg/kg/injection, schedule: Q01DX009 (ip), vehicle: saline) was 118 % of control and 123 % of control, the T/C (endpoint: mean survival time, dose: 5.0 mg/kg/injection, schedule: Q01DX Z (sc), vehicle: steriod suspending solution) was 160 % of control and the T/C (endpoint: mean survival time, dose: 5.7 mg/kg/injection, schedule: Q02DX010 (ip), vehicle: carboxymethylcellulose (CMC)) was 121 % of control. For the same molecule, the T/C (endpoint: mean survival time, dose: 6.0 mg/kg/injection, schedule: Q01DX Z (ip), vehicle: carboxymethylcellulose (CMC)) was 119 % of control, the T/C (endpoint: mean survival time, dose: 6.2 mg/kg/injection, schedule: Q01DX Z (sc), vehicle: saline) was 106 % of control and 113 % of control and the T/C (endpoint: mean survival time, dose: 6.25 mg/kg/injection, schedule: Q01DX Z (oral), vehicle: steriod suspending solution) was 101 % of control. The T/C (endpoint: mean survival time, dose: 6.8 mg/kg/injection, schedule: Q02DX010 (ip), vehicle: saline) was 122 % of control, the T/C (endpoint: mean survival time, dose: 8.0 mg/kg/injection, schedule: Q01DX Z (ip), vehicle: saline) was 162 % of control and the T/C (endpoint: mean survival time, dose: 8.0 mg/kg/injection, schedule: Q01DX Z (sc), vehicle: other) was 122 % of control. The T/C (endpoint: mean survival time, dose: 8.0 mg/kg/injection, schedule: Q01DX Z (sc), vehicle: saline) was 115 % of control, the T/C (endpoint: mean survival time, dose: 9.0 mg/kg/injection, schedule: Q01DX Z (sc), vehicle: saline) was 103 % of control and the T/C (endpoint: mean survival time, dose: 9.0 mg/kg/injection, schedule: Q02DX010 (ip), vehicle: carboxymethylcellulose (CMC)) was 122 % of control. The T/C (endpoint: mean survival time, dose: 10.0 mg/kg/injection, schedule: Q01DX Z (sc), vehicle: steriod suspending solution) was 156 % of control, the T/C (endpoint: mean survival time, dose: 12.0 mg/kg/injection, schedule: Q01DX Z (ip), vehicle: saline) was 184 % of control and the T/C (endpoint: mean survival time, dose: 12.5 mg/kg/injection, schedule: Q01DX Z (oral), vehicle: steriod suspending solution) was 157 % of control. For the same molecule, the T/C (endpoint: mean survival time, dose: 13.0 mg/kg/injection, schedule: Q02DX010 (ip), vehicle: saline) was 154 % of control, the T/C (endpoint: mean survival time, dose: 18.0 mg/kg/injection, schedule: Q01DX001 (ip), vehicle: saline) was 124 % of control and the T/C (endpoint: mean survival time, dose: 18.0 mg/kg/injection, schedule: Q01DX Z (ip), vehicle: carboxymethylcellulose (CMC)) was 177 % of control. The T/C (endpoint: mean survival time, dose: 18.0 mg/kg/injection, schedule: Q01DX Z (ip), vehicle: saline) was 187 % of control, the T/C (endpoint: mean survival time, dose: 18.0 mg/kg/injection, schedule: Q01DX Z (sc), vehicle: other) was 188 % of control and the T/C (endpoint: mean survival time, dose: 20.0 mg/kg/injection, schedule: Q01DX009 (ip), vehicle: saline) was 158 % of control and 174 % of control. For the same molecule, the T/C (endpoint: mean survival time, dose: 20.0 mg/kg/injection, schedule: Q02DX010 (ip), vehicle: other) was 159 % of control, the T/C (endpoint: mean survival time, dose: 20.0 mg/kg/injection, schedule: Q02DX010 (ip), vehicle: saline) was 160 % of control and 166 % of control and the T/C (endpoint: mean survival time, dose: 22.5 mg/kg/injection, schedule: Q02DX010 (ip), vehicle: saline) was 152 % of control. For the same molecule, the T/C (endpoint: mean survival time, dose: 24.0 mg/kg/injection, schedule: Q02DX010 (ip), vehicle: saline) was 167 % of control, the T/C (endpoint: mean survival time, dose: 24.8 mg/kg/injection, schedule: Q01DX Z (oral), vehicle: saline) was 112 % of control and the T/C (endpoint: mean survival time, dose: 27.0 mg/kg/injection, schedule: Q01DX Z (ip), vehicle: saline) was 115 % of control. For the same molecule, the T/C (endpoint: mean survival time, dose: 30.0 mg/kg/injection, schedule: Q02DX010 (ip), vehicle: other) was 208 % of control, the T/C (endpoint: mean survival time, dose: 30.0 mg/kg/injection, schedule: Q02DX010 (ip), vehicle: saline) was 154 % of control and 177 % of control and the T/C (endpoint: mean survival time, dose: 36.0 mg/kg/injection, schedule: Q01DX Z (ip), vehicle: carboxymethylcellulose (CMC)) was 122 % of control. The T/C (endpoint: mean survival time, dose: 36.0 mg/kg/injection, schedule: Q02DX010 (ip), vehicle: saline) was 211 % of control, the T/C (endpoint: mean survival time, dose: 40.0 mg/kg/injection, schedule: Q01DX009 (ip), vehicle: saline) was 118 % of control and 88 % of control and the T/C (endpoint: mean survival time, dose: 40.0 mg/kg/injection, schedule: Q01DX Z (ip), vehicle: saline) was 103 % of control. The T/C (endpoint: mean survival time, dose: 45.0 mg/kg/injection, schedule: Q01DX Z (ip), vehicle: carboxymethylcellulose (CMC)) was 94 % of control, the T/C (endpoint: mean survival time, dose: 45.0 mg/kg/injection, schedule: Q02DX010 (ip), vehicle: saline) was 108 % of control and the T/C (endpoint: mean survival time, dose: 56.0 mg/kg/injection, schedule: Q01DX Z (oral), vehicle: saline) was 113 % of control and 114 % of control. The T/C (endpoint: mean survival time, dose: 67.0 mg/kg/injection, schedule: Q02DX010 (ip), vehicle: other) was 101 % of control, the T/C (endpoint: mean survival time, dose: 67.0 mg/kg/injection, schedule: Q02DX010 (ip), vehicle: saline) was 74 % of control and the T/C (endpoint: mean survival time, dose: 72.0 mg/kg/injection, schedule: Q01DX001 (ip), vehicle: saline) was 188 % of control. The T/C (endpoint: mean survival time, dose: 80.0 mg/kg/injection, schedule: Q01DX Z (sc), vehicle: steriod suspending solution) was 101 % of control, the T/C (endpoint: mean survival time, dose: 84.0 mg/kg/injection, schedule: Q01DX Z (oral), vehicle: saline) was 101 % of control and the T/C (endpoint: mean survival time, dose: 160.0 mg/kg/injection, schedule: Q01DX Z (sc), vehicle: steriod suspending solution) was 88 % of control. The T/C (endpoint: median survival time, dose: 0.75 mg/kg/injection, schedule: Q01DX009 (ip), vehicle: saline) was 95 % of control, the T/C (endpoint: median survival time, dose: 1.5 mg/kg/injection, schedule: Q01DX009 (ip), vehicle: saline) was 100 % of control and 110 % of control and the T/C (endpoint: median survival time, dose: 3.0 mg/kg/injection, schedule: Q01DX009 (ip), vehicle: saline) was 100 % of control and 115 % of control. For the same molecule, the T/C (endpoint: median survival time, dose: 5.0 mg/kg/injection, schedule: Q01DX009 (ip), vehicle: saline) was 121 % of control, the T/C (endpoint: median survival time, dose: 6.3 mg/kg/injection, schedule: Q01DX017 (ip), vehicle: saline) was 122 % of control and the T/C (endpoint: median survival time, dose: 10.0 mg/kg/injection, schedule: Q01DX009 (ip), vehicle: saline) was 155 % of control. The T/C (endpoint: median survival time, dose: 12.0 mg/kg/injection, schedule: Q01DX009 (ip), vehicle: saline) was 172 % of control, the T/C (endpoint: median survival time, dose: 12.5 mg/kg/injection, schedule: Q01DX017 (ip), vehicle: saline) was 183 % of control and 194 % of control and the T/C (endpoint: median survival time, dose: 20.0 mg/kg/injection, schedule: Q01DX009 (ip), vehicle: saline) was 233 % of control and 242 % of control. The T/C (endpoint: median survival time, dose: 24.0 mg/kg/injection, schedule: Q01DX009 (ip), vehicle: saline) was 190 % of control and the T/C (endpoint: median survival time, dose: 40.0 mg/kg/injection, schedule: Q01DX009 (ip), vehicle: saline) was 100 % of control and 121 % of control.
